Source: article PMC8264055, “Pharmacokinetics of Colistin in the Gastrointestinal Tract of Poultry Following Dosing via Drinking Water and Its Bactericidal Impact on Enteric Escherichia coli” (Frontiers in Veterinary Science, 2021)
Where a name gives a salt, the structure may show the parent alone. Positions of bridges follow the written chain, without caps; N, C: chain ends. Non-standard residues stand in square brackets, D forms with d. Residues, ends and D or L forms follow the SMILES beside them. *: point of attachment. X1 = CC[C@H](C)CCCCC(=O)*; Dab = NCC[C@H](N)C(=O)O

Experiments:
[1] = Colistin content in luminal intestinal content (LIC) by UHPLC-MS/MS, non-compartmental PK analysis; format: in vivo, broiler chicken (Gallus gallus domesticus)
From the text: (§1) This study was approved by the Royal Veterinary College ethics and welfare committee. One hundred Ross 308 broiler chicken (Gallus gallus domesticus) were obtained from an approved supplier and housed in the animal welfare barn (AWB) at the Royal Veterinary College. Poultry were group-housed and fed baby chick crumbs (Smallholder Range, Norfolk, UK), a feed free of coccidiostats and designed to feed from hatching to 6–8 weeks, and given free access to water for the duration of the study. At 13 days, six birds were separated and maintained as a control group for the course of the study with the remaining 94 birds constituting the study group. European Pharmacopeia-compliant Meiji Seika Pharma's colistin sulfate (ColiMeiji®, hereafter “colistin”) consisting of a 78.53% (“as is”) mixture of colistin A (polymyxin E1) and colistin B (polymyxin E2), was per certificate of analysis (CoA) supplied by Wyjolab (Chaillac, France). Potency of colistin (as reported by CoA) was 23,558 IU/mg, and dosing was calculated as equivalent colistin base. Colistin was administered via drinking water to the study group at a dose equal to 75,000 IU/kg/day over a period of 3 days. The volume of colistin stock solution (2,000,000 IU/ml) diluted per 3-L drinking bell (Poultry Drinker 3L, Farm & Country Supplies, Alton, Hampshire, UK) was based on the average bird weight and water consumption measured on the day prior to dosing. Actual dose received every 24 h was back calculated based on measured water consumption for that period and bird weights. Birds were housed in a 25-m^2 floor pen with access to 5 × 3-L drinking bells, refreshed every 24 h. Average relative humidity was 44.5% (range: 29–63%) and average temperature 24°C (range: 20–28°C). Birds were provided a 14-h photoperiod aligned with onset of dosing (0 h) at 07:00.
(§2) The study group was sampled at predetermined times pre-dose (0 h), during oral dosing (at 12, 36, and 54 h), at cessation of dosing (72 h), and after dosing (73, 74, 76, 80, 84, 96, 120, and 144 h from the onset of dosing). At each time point, eight birds were sacrificed, except at 12, 36, and 54 h where only six birds were sacrificed. After neck dislocation, cloacal swabs were immediately taken, and the whole small intestine was excised after placing three ligatures (one around the duodenum, one on the ileum just proximally to the cecal attachment, and one distally to include the large intestine). All samples were stored at 4°C for no more than 48 h prior to further analysis. All birds in the control group underwent cloacal sampling at matching time points.
Each intestinal specimen was individually processed with a new set of examination gloves and blades to avoid carry over or contamination. The ceca were separated from the small intestine by cutting off the ileum proximally to the ligature. The luminal intestinal content (LIC) was then evacuated through peristaltic massage of the small intestine in a proximal-to-distal direction. Extracted LIC was mixed to ensure a homogenous sample, and 200 mg (±2 mg) aliquots were separated for further testing. Parietal intestinal content (PIC) was collected following LIC; the intestine was inflated with air, straightened, and longitudinally incised with a scalpel blade no. 11. The opened intestine was flattened, and the blade was used to scrape the parietal lining of the intestine. Luminal cecal content (LCC) was extracted in a similar fashion following incision at one end. Aliquots for colistin quantification were stored at −80°C or at 4°C for bacterial enumeration and isolation.
Total colistin content was quantified using a novel ultra-high-performance liquid chromatography-tandem mass spectrometry (UHPLC-MS/MS) method. […]

enteric E. coli = experiment: Enumeration of E. coli in luminal intestinal content on UriSelect 4 agar during and after colistin treatment; format: in vivo, Escherichia coli
From the text: as §1
as §2, with “All birds in the control group underwent cloacal sampling at matching time points.” left out
UriSelect 4™ agar (Bio-Rad, Watford, UK) plates were used for enumeration and isolation of E. coli from LIC. […] Bacterial counts in original LIC were back calculated based on the total number of colonies countable on UriSelect 4™ agar. […]

[2] = LIC, nominal dose 75,000 IU/kg/day, NCA sparse option, 6 to 8 birds per time point
[3] = nominal dose 75,000 IU/kg/day via drinking water, from partial AUC, NCA sparse option
[4] = during dosing, 75,000 IU/kg/day via drinking water, n = 6, median baseline 3.6 × 10^6 CFU/g

For `CC[C@H](C)CCCCC(=O)N[C@@H](CCN)C(=O)N[C@H](C(=O)N[C@@H](CCN)C(=O)N[C@H]1CCNC(=O)[C@H]([C@@H](C)O)NC(=O)[C@H](CCN)NC(=O)[C@H](CCN)NC(=O)[C@H](CC(C)C)NC(=O)[C@@H](CC(C)C)NC(=O)[C@H](CCN)NC1=O)[C@@H](C)O` [colistin, colistin sulfate] (X1-[Dab]T[Dab][Dab][Dab][dL]L[Dab][Dab]T; lactam 4-C), the “Partial AUC, AUC0-24h (first day)” value [1, 2] was 54.1 mg·h/kg, the “Partial AUC, AUC24-48h (second day)” value [1, 2] was 75.5 mg·h/kg and the “Partial AUC, AUC48-72h (third day)” value [1, 2] was 112.6 mg·h/kg. For the same compound, the tissue level at time at 72 h ([1]; Ross 308 broiler, luminal intestinal content (LIC), po, 75000 IU/kg/day, 75,000 IU/kg/day via drinking water for 72 h, 72 h, mean of n = 8 birds, read-out: mean colistin content in LIC at cessation of dosing) was 4510 ng/g, the “mean colistin content in LIC, peak” value ([1]; broiler chickens, colistin sulfate 75,000 IU/kg/day via drinking water for 72 h, 54 h from onset of dosing, mean of n = 6 birds, UHPLC-MS/MS, LOQ 1.1 mg/kg) was 5.09 mg/kg and the “Average colistin luminal intestinal content, 0-48 h (first and second day)” value [1, 3] was 2.70 mg/kg digesta. For the same compound, the “Average colistin luminal intestinal content, 24-48 h (second day)” value [1, 3] was 3.15 mg/kg digesta, the “median E. coli count in LIC at 96, 120 and 144 h” value (enteric E. coli; after dosing, to end of the experiment, n = 8 per time point) was ~5 × 10^5 and the “median E. coli count in LIC at 36 h” value (enteric E. coli; [4]) was 3.9 × 10^3 CFU/g. The “median E. coli count in LIC at 54 h” value (enteric E. coli; [4]) was 1.56 × 10^4 CFU/g and the “log reduction in the number of E. coli” value (enteric E. coli; up to 36 h post-onset of colistin administration) was over 3 log.
